We go through six compounds from article PMC4700511 (Biochemistry, 2015).

Data set [1] has as its target T1, VIM-24 (Escherichia coli, UniProt Q5U7L7, R205L). The format is biochemical, Klebsiella pneumoniae. The conditions noted are these: VIM-24; substrate hydrolysis, 10 mM HEPES pH 7.5, 25 °C.
A further data set deals with E. coli pBC SK(−). The experiment in a line: MIC by agar dilution, E. coli DH10B with empty pBC SK. The class given is cell-based. The following applies: Escherichia coli.
Data set [2] deals with E. coli DH10B pBCSK(−) producing VIM-2 (228R). Put plainly: MIC by agar dilution, E. coli DH10B pBCSK. The class given is cell-based. The conditions noted are these: Escherichia coli.
The test system of data set [3] is E. coli DH10B pBCSK(−) producing VIM-24 (R228L). Put plainly: MIC by agar dilution, E. coli DH10B pBCSK. The format is cell-based. The following applies: Escherichia coli.
For data set [4], the system named is E. coli DH10B pBCSK(−) producing R228K. Put plainly: MIC by agar dilution, E. coli DH10B pBCSK. The format is cell-based. The conditions noted are these: Escherichia coli.
The test system of data set [5] is E. coli DH10B pBCSK(−) producing R228P. The experiment in a line: MIC by agar dilution, E. coli DH10B pBCSK. The format is cell-based. The following applies: Escherichia coli.
For data set [6], the system named is E. coli DH10B pBCSK(−) producing R228M. Put plainly: MIC by agar dilution, E. coli DH10B pBCSK. The class given is cell-based. The following applies: Escherichia coli.
Data set [7] has as its system E. coli DH10B pBCSK(−) producing R228Q. Put plainly: MIC by agar dilution, E. coli DH10B pBCSK. The class given is cell-based. The following applies: Escherichia coli.
In data set [8] the test system is E. coli DH10B pBCSK(−) producing R228Y. Put plainly: MIC by agar dilution, E. coli DH10B pBCSK. The format is cell-based. The conditions noted are these: Escherichia coli.
Data set [9] relates to E. coli DH10B pBCSK(−) producing R228X (other variants). Put plainly: MIC by agar dilution, E. coli DH10B pBCSK. The class given is cell-based. The following applies: Escherichia coli, R228X: range of MIC values of the other variants; MHA.
The subject of data set [10] is CC(=O)OCC1=C(C(=O)O)N2C(=O)[C@@H](NC(=O)Cc3cccs3)[C@H]2SC1. Put plainly: purified protein, by the assay type. The conditions noted are these: other: VIM-2, substrate hydrolysis, 10 mM HEPES pH 7.5, 25 °C.
Data set [11] concerns C[C@@H](O)[C@H]1C(=O)N2C(C(=O)O)=C(SCCN=CN)C[C@H]12. Put plainly: purified protein, by the assay type. The conditions noted are these: other: VIM-2, substrate hydrolysis, 10 mM HEPES pH 7.5, 25 °C.
Data set [12] has as its system O=C(Cc1cccs1)N[C@@H]1C(=O)N2C(C(=O)O)=C(/C=C/c3ccc([N+](=O)[O-])cc3[N+](=O)[O-])CS[C@H]12. Put plainly: purified protein, by the assay type. The conditions noted are these: other: VIM-2, substrate hydrolysis, 10 mM HEPES pH 7.5, 25 °C.
Data set [13] concerns VIM-24. The class given is biochemical, Klebsiella pneumoniae. The following applies: VIM-24 (R228L) vs VIM-2.
A further data set addresses VIM-2 (Escherichia coli, UniProt Q5U7L7). Put plainly: Hydrolysis of cefepime and ceftazidime by periplasm preparations, VIM-2. The format is biochemical, P. aeruginosa. The conditions noted are these: VIM-2 periplasmic preparation; 400 μM ceftazidime.
The target of data set [14] is T1, VIM-24. The experiment in a line: Hydrolysis of cefepime and ceftazidime by periplasm preparations, VIM-24. The following applies: VIM-24 periplasmic preparation; 400 μM ceftazidime. The class given is biochemical, Klebsiella pneumoniae.
In data set [15] the test system is VIM-2-producing P. aeruginosa. The experiment in a line: Imipenem MIC of the clinical isolate, VIM-2-producing P. aeruginosa. The format is cell-based, Pseudomonas aeruginosa.
The subject of data set [16] is VIM-24-producing K. pneumoniae. Put plainly: Imipenem MIC of the clinical isolate, VIM-24-producing K. pneumoniae. The following applies: Klebsiella pneumoniae, read-out: imipenem MIC, VIM-24-producing K. pneumoniae. The format is cell-based.

Converted amounts (≈) assume the structure as drawn.

For `O=C(Cc1cccs1)N[C@@H]1C(=O)N2C(C(=O)O)=C(/C=C/c3ccc([N+](=O)[O-])cc3[N+](=O)[O-])CS[C@H]12` [nitrocefin], the kcat on VIM-24 [1] came to 171 ± 4 s⁻¹.
As to `CC(=O)OCC1=C(C(=O)O)N2C(=O)[C@@H](NC(=O)Cc3cccs3)[C@H]2SC1` [cephalothin], the MIC was found to be 8 µg/mL (≈ 20.2 µM) against E. coli pBC SK(−) (MHA); 256 µg/mL (≈ 646 µM) in [2] (MHA); 256 µg/mL (≈ 646 µM) in data set [3] (MHA); 16 µg/mL (≈ 40.4 µM) in data set [4] (MHA); 16 µg/mL (≈ 40.4 µM) in [5] (MHA); 256 µg/mL (≈ 646 µM) in [6] (MHA). Further, the MIC in [7] (MHA) was 1020 µg/mL (≈ 2580 µM); in data set [8] (MHA), 256 µg/mL (≈ 646 µM); in data set [9], 64 to 256 µg/mL (≈ 161 to 646 µM). Besides, the kcat on VIM-24 [1] was 150 ± 9 s⁻¹.
Regarding VIM-2 (Escherichia coli), in [10], the Km was 17 ± 2 µM, the kcat amounted to 168 ± 8 s⁻¹ and the kcat/Km turned out to be 9.8e+06 M⁻¹ s⁻¹. Moreover, in data set [11], the Km is 12 ± 1 µM, the kcat was found to be 45 ± 1 s⁻¹ and the kcat/Km was 3.6e+06 M⁻¹ s⁻¹. For the same compound, in data set [12], the Km turned out to be 13 ± 1 µM, the catalytic constant (kcat) worked out at 430 ± 20 s⁻¹ and the kcat/Km was determined as 3.3e+07 M⁻¹ s⁻¹.
In the case of `CC1(C)S[C@@H]2[C@H](NC(=O)[C@H](N)c3ccccc3)C(=O)N2[C@H]1C(=O)O` [ampicillin], the MIC against E. coli pBC SK(−) (MHA) was 4 µg/mL (≈ 11.4 µM); in [2] (MHA), 512 µg/mL (≈ 1470 µM); in data set [3] (MHA), 512 µg/mL (≈ 1470 µM); in data set [4] (MHA), 32 µg/mL (≈ 91.6 µM); in data set [5] (MHA) it was 32 µg/mL (≈ 91.6 µM); in [6] (MHA), 1020 µg/mL (≈ 2930 µM). Moreover, the minimal inhibitory concentration (MIC) is 1020 µg/mL (≈ 2930 µM) in data set [7] (MHA), 1020 µg/mL (≈ 2930 µM) in data set [8] (MHA) and 64 to 512 µg/mL (≈ 183 to 1470 µM) in data set [9].
On to `CC(C)(O/N=C(\C(=O)N[C@@H]1C(=O)N2C(C(=O)[O-])=C(C[n+]3ccccc3)CS[C@H]12)c1csc(N)n1)C(=O)O` [ceftazidime], for which the minimum inhibitory concentration (MIC) in the data set on E. coli pBC SK(−) (MHA) was 0.06 µg/mL (≈ 0.11 µM); in the data set with E. coli pBC SK(−) (MHA + 5 μM EDTA) it was no more than 1 µg/mL; in the data set with E. coli pBC SK(−) (MHA + 250 μM Zn^2+), no more than 1 µg/mL; in data set [2] (MHA) it was 16 µg/mL (≈ 29.3 µM); in data set [2] (MHA + 5 μM EDTA), 16 µg/mL; in [2] (MHA + 250 μM Zn^2+), 32 µg/mL. Besides, the MIC in data set [3] (MHA) is 64 µg/mL (≈ 117 µM); in data set [3] (MHA + 5 μM EDTA) it was 32 µg/mL; in data set [3] (MHA + 250 μM Zn^2+), 128 µg/mL; in data set [4] (MHA), 1 µg/mL (≈ 1.83 µM); in [4] (MHA + 5 μM EDTA), no more than 1 µg/mL; in data set [4] (MHA + 250 μM Zn^2+), no more than 1 µg/mL. The MIC was 1 µg/mL (≈ 1.83 µM) in data set [5] (MHA); no more than 1 µg/mL in data set [5] (MHA + 5 μM EDTA); 4 µg/mL in [5] (MHA + 250 μM Zn^2+); 128 µg/mL (≈ 234 µM) in [6] (MHA); 64 µg/mL in [6] (MHA + 5 μM EDTA); 256 µg/mL in [6] (MHA + 250 μM Zn^2+). The MIC in [7] (MHA) came to 128 µg/mL (≈ 234 µM); in [7] (MHA + 5 μM EDTA) it was 128 µg/mL; in data set [7] (MHA + 250 μM Zn^2+) it was 512 µg/mL; in data set [8] (MHA), 64 µg/mL (≈ 117 µM); in data set [8] (MHA + 5 μM EDTA), 64 µg/mL; in data set [8] (MHA + 250 μM Zn^2+), 128 µg/mL. The MIC in data set [9] lay in the range of 16 to 128 µg/mL (≈ 29.3 to 234 µM). Also, in the data set with VIM-24 [13], the “kcat/KM increase of VIM-24 compared to VIM-2” value is recorded as 6 fold. The “rate of hydrolysis (initial velocity) in periplasm” value at VIM-2 is “measurable rates of hydrolysis were not obtained”; at VIM-24 [14], 4e-07 M/s.
With `C[C@@H](O)[C@H]1C(=O)N2C(C(=O)O)=C(SCCN=CN)C[C@H]12` [imipenem], the MIC against E. coli pBC SK(−) (MHA) was 0.25 µg/mL (≈ 0.835 µM); with E. coli pBC SK(−) (MHA + 5 μM EDTA) it was no more than 0.125 µg/mL; in the data set with E. coli pBC SK(−) (MHA + 250 μM Zn^2+) it was 0.25 µg/mL; in data set [2] (MHA) it was 0.5 µg/mL (≈ 1.67 µM); in data set [2] (MHA + 5 μM EDTA) it was 0.5 µg/mL; in data set [2] (MHA + 250 μM Zn^2+), 1 µg/mL. Further, the minimal inhibitory concentration (MIC) amounted to 0.5 µg/mL (≈ 1.67 µM) in data set [3] (MHA); 0.5 µg/mL in data set [3] (MHA + 5 μM EDTA); 1 µg/mL in [3] (MHA + 250 μM Zn^2+); 0.25 µg/mL (≈ 0.835 µM) in data set [4] (MHA); 0.25 µg/mL in data set [4] (MHA + 5 μM EDTA); 0.25 µg/mL in [4] (MHA + 250 μM Zn^2+). Also, the MIC in data set [5] (MHA) is 0.5 µg/mL (≈ 1.67 µM); in data set [5] (MHA + 5 μM EDTA), no more than 0.125 µg/mL; in data set [5] (MHA + 250 μM Zn^2+) it was 0.25 µg/mL; in [6] (MHA) it was 2 µg/mL (≈ 6.68 µM); in data set [6] (MHA + 5 μM EDTA), 1 µg/mL; in [6] (MHA + 250 μM Zn^2+), 4 µg/mL. Moreover, the MIC is 4 µg/mL (≈ 13.4 µM) in data set [7] (MHA); 4 µg/mL in data set [7] (MHA + 5 μM EDTA); greater than 4 µg/mL in data set [7] (MHA + 250 μM Zn^2+); 1 µg/mL (≈ 3.34 µM) in data set [8] (MHA); 1 µg/mL in [8] (MHA + 5 μM EDTA); 1 µg/mL in data set [8] (MHA + 250 μM Zn^2+). In addition, the MIC in [9] is 0.25 to 1 µg/mL (≈ 0.835 to 3.34 µM); in data set [15] (Pseudomonas aeruginosa, read-out: imipenem MIC), 32 µg/mL; in [16] it was 2 µg/mL. The Km at VIM-24 [1] was found to be 5 ± 0.7 µM. On VIM-24 [1], the kcat amounted to 8.8 ± 0.3 s⁻¹. In addition, in data set [15] (VIM-2 harboring P. aeruginosa clinical isolate), the “imipenem MIC” value turned out to be 32 µg/mL.
